In patent USRE35053E, “Amines useful in producing pharmaceutically active CNS compounds” (The Upjohn Company, priority 1992, dated 1995):
Counter-ions that a name gives are not always drawn.

Key:
[1] = tested on: conjugated diene formation in rat brain synaptosomes; test: Conjugated diene formation assay (lipid peroxidation); format: biochemical; conditions: 100 μM (or less) of the drug, active = 50% inhibition or more
Protocol: The formation of conjugated dienes as assayed by Braughler. […] Bucher, Fund.
Synaptosomal suspension (10 μl) is added to 1 ml of physiological (normal) saline containing 1% Lubrol PX (Sigma Chemical Co. St. Louis, Mo.). […] The reaction is started by the rapid addition of 200 μM ferrous ammonium sulfate prepared in argon-purged water. The sample is rapidly mixed and the change in absorbance at 232nm is followed in a Gilford Response Spectrophotometer equipped with a rapid sampler. Due to the rapidity of the reaction, rapid addition of the iron, rapid mixing and sampling are obligatory to the accuracy of the assay. For best results absorbance readings of one/sec should be started within 5 sec following the addition of iron. The initial linear rate of absorbance change during the first 30 sec of reaction are compared with the rate of a reaction containing all reagents except synaptosomes. The difference in rates is the rate of conjugated diene formation. Rates with drug are compared to rates obtained in the absence of drug and the % inhibition is calculated.

[2] = tested on: interleukin-1; test: inhibition of interleukin-1 induced T cell proliferation assay; format: cell-based; conditions: active = >30% at 10^-6 M
Source text: The inhibition of interleukin-1 induced T cell proliferation assay, Proc. Nat. […] Since people with arthritis make excess interleukin 1, compounds which inhibit the activity of interleukin 1 are useful in the treatment of arthritis. According to this procedure compounds which inhibit the activity of interleukin 1 greater that 30% at 10^-6 M are considered to be "active".

[3] = tested on: induced mucous secretions; test: inhibition of mucous secretion assay of Johnson; conditions: for inhibition of mucous secretion: inhibit or block enhancement of induced mucous secretions; for preferred mucous inhibitors per test results: ranking in words
Source text: The inhibition of mucous secretion assay of Johnson Int. […] According to this procedure compounds which inhibit or block enhancement of induced mucous secretions when tested are considered to be "active".

[4] = tested on: angiogenesis; test: fertile egg or chick embryo assay of Folkman (inhibition of angiogenesis / tumor growth); format: in vivo; conditions: chick embryo; for inhibition of angiogenesis: 50 μg/10 μl with heparin, avascular zone 4 mm or greater
Protocol: According to this procedure compounds which are considered to be "active" (i.e, antiangiogenic) give an avascular zone of 4 mm or greater in some embryos when tested at 50 μg/10 μl in the presence of 50 μg/10 μ of heparin.

[5] = tested on: MDA formation in rat brain synaptosomes; test: Malonyldialdehyde (MDA) Formation Assay (lipid peroxidation); format: biochemical; conditions: active = 50% inhibition or more at 200 μM or less
Source text: The MDA assays of Buege and Aust, Methods in Enzymology, Fleisher and Packer Editors. Academic Press, 1978, New York, Vol LII, p 302-310 and Kohn and Liversedge, J. Pharmacol. Exp. Ther. 82. […] Since iipid peroxidation is involved in the pathophysiology of central nervous system trauma, compounds which inhibit MDA formation are useful in treating the conditions listed below.
While not necessary to determine MDA formation, the above assays have been modified as follows: rat brain synaptosomes are prepared as described in the Example about the conjugated diene assay, except that the final wash of the synaptosomes and final suspension are in physiological (normal) saline in which the pH has been adjusted to 7 0. The synaptosomes are incubated for 10 min at 37° in physiological (normal) saline pH 7.0 (total volume=100 ul) containing; 10 ul synaptosomal suspension. 10% DMSO plus or minus drug. 150 uM Fe^+++ and 50 uM Fe^++. The incubation is started by the rapid addition of iron to the otherwise complete reaction. The iron solutions are prepared fresh as ferric chloride and ferrous ammonium sulfate in argon-purged water. Following the 10 min incubation, the reaction is stopped by the addition of 500 ul ice-cold 12% trichloroacetic acid prepared in 0.5 N hydrochloric acid. Water (300 ul) is then added along with 100 ul of freshly prepared thiobarbituric acid (3.3% in 0.5N sodium hydroxide) and 10 ul of 5mM desferrioxamine. The sample is then heated in a boiling water bath for 20 minutes. The samples are cooled and centrifuged for 15 minutes at 1500 xg and the absorbance of the supernatant fraction is read at 532 nm. The % inhibition of MDA formation is calculated by dividing the absorbance of sample containing drug by the absorbance of samples incubated without drug. Reaction blanks are samples incubated in the absence of iron A compound that inhibits MDA formation by 50% or more at a concentration of 200μM or less is considered "active".

[6] = tested on: arachidonic acid; test: Arachidonic Acid Antagonism Assay (AAAA); format: in vivo, mouse (Charles River male CF-1); conditions: mice; IV, 15 min before sodium arachidonate; outside 95% confidence interval of control LD50
Protocol: While not necessary to determine arachidonic acid antagonism, the above assay has been modified as follows: Charles River male CF-1 mice weighing […] are treated IV with the test compound dissolved in 1.0% Tween-80 and 0.1% hydrochloric acid in distilled water. 0 2 ml total volume. Fifteen minutes later sodium arachidonate (90% pure) in physiological (normal) […] is injected into the tail vein. The LD50 is measured using the Spearman-Karber method with a log dose interval of 0.05 (N-6). Compounds which elevate the LD50 outside of the 95% confidence interval of the control LD50 are considered to be "active".

Structure (SMILES)	inhibition of conjugated diene formation [1]	inhibition of interleukin 1 [2]	inhibition of mucous secretion [3]	preferred mucous inhibitors per test results [3]	inhibition of angiogenesis [4]	inhibition of MDA formation [5]	arachidonic acid antagonism (elevation of LD50 of arachidonic acid) [6]	% of Embryos with 4 mm or Greater A vascular Zone ([4]; 50 μg/10 μl in the presence of heparin) [%]
C[C@]12CCC(=O)C=C1CC[C@@H]1C2=CC[C@@]2(C)[C@H]1CC[C@]2(O)C(=O)CN1CCC(O)(c2ccc(C(F)(F)F)cc2)CC1 [Example 5, 17α-Hydroxy-21-[4-hydroxy-4 (4-trifiuoromethyl)phenyl 1-piperidinyl]pregna-4,9(11)-diene-3 20-dione]	demonstrate such activity	–	–	–	–	–	–	–
C[C@]12CCC(=O)C=C1CC[C@@H]1C2=CC[C@@]2(C)[C@H]1CC[C@]2(O)C(=O)CN1CCN(c2cc(N3CCOCC3)nc(N3CCOCC3)n2)CC1 [Example 105, 21-[4-(2,6-Bis(4-morpholino)-4-pyrimidinyl)-1-piperazinyl]-17α-hydroxypregna-4,9(11)-diene-3,20-dione dihydrochloride, hydrate]	–	demonstrate inhibition of interleukin 1	demonstrate such activity	preferred mucous inhibitors	demonstrate inhibition of angiogenesis	–	–	–
C[C@@H]1C[C@H]2[C@@H]3CCC4=CC(=O)C=C[C@]4(C)C3=CC[C@]2(C)[C@H]1C(=O)CN1CCN(c2cc(N3CCOCC3)nc(N3CCOCC3)n2)CC1 [Example 86, 16α-methyl-21-[4-[2,6-bis(4-morpholino)-4-pyrimidinyl]-1-piperazinyl]pregna-1,4,9(11)-triene-3,20-dione]	demonstrate such activity	demonstrate inhibition of interleukin 1	–	–	demonstrate inhibition of angiogenesis	demonstrate such activity	–	–
CS(=O)(=O)O.CS(=O)(=O)O.C[C@@H]1C[C@H]2[C@@H]3CCC4=CC(=O)C=C[C@]4(C)C3=CC[C@]2(C)[C@H]1C(=O)CN1CCN(c2cc(N3CCCC3)nc(N3CCCC3)n2)CC1 [Example 83, 16α-Methyl-21-[4-(2,6-bis(1-pyrrolidinyl)-4-pyrimidinyl]-1-piperazinyl]pregna-1,4,9(11)-triene-3,20-dione dimethane-sulfonate]	demonstrate such activity	demonstrate inhibition of interleukin 1	demonstrate such activity	preferred mucous inhibitors	demonstrate inhibition of angiogenesis	demonstrate such activity	–	–
CC(CN1CCN(c2cc(N3CCCC3)nc(N3CCCC3)n2)CC1)[C@H]1CC[C@H]2[C@@H]3CCC4=CC(=O)C=C[C@]4(C)[C@H]3CC[C@]12C.CS(=O)(=O)O.O (stereo partly shown) [Example 112, 21-[4-(2,6-Bis(1-pyrrolidinyl)-4-pyrimidinyl)-1-piperazinyl]-20-methylpregna-1,4-dien-3-one methanesulfonate, hydrate]	demonstrate such activity	–	–	–	–	–	–	–
CS(=O)(=O)O.C[C@]12CCC(=O)C=C1CC[C@@H]1C2=CC[C@@]2(C)[C@H]1CC[C@]2(O)C(=O)CN1CCN(c2ccccn2)CC1 [Example 2, 17α-Hydroxy-21-[4-(2-pyridinyl)-1piperazinyl]pregna-4,9(11)-diene-3,20di-one methanesulfonate]	demonstrate such activity	–	demonstrate such activity	preferred mucous inhibitors	–	–	demonstrate arachidonic acid antagonism	85
C[C@H]1C[C@@H]2C(=CC[C@@]3(C)[C@H]2CC[C@]3(O)C(=O)CN2CCN(c3cc(N4CCCC4)nc(N4CCCC4)n3)CC2)[C@@]2(C)C=CC(=O)C=C12 [Example 47, 17α-hydroxy-6α-methyl-21-[4-[2,6-bis(1-pyrrolidinyl)-4-pyrimidinyl-1-piperazinyl)pregna-1,4,9(11)-triene-3,20-dione,(E)-2-butenodioate salt]	demonstrate such activity	demonstrate inhibition of interleukin 1	–	–	–	demonstrate such activity	demonstrate arachidonic acid antagonism	–
C[C@]12C=CC(=O)C=C1CC[C@@H]1C2=CC[C@]2(C)[C@@H](C(=O)CN3CCN(c4cc(N5CCCC5)nc(N5CCCC5)n4)CC3)CC[C@@H]12.Cl.Cl [Example 111, 21-[4-(2,6-Bis(1-pyrrolidinyl)-4-pyrimidinyl)-1-piperazinyl]pregna-1,4,9(11)-triene-3,20-dione dihydrochloride]	demonstrate such activity	–	–	–	–	–	–	–
CCN(CC)c1cc(N2CCN(CC(=O)[C@@]3(O)CC[C@H]4[C@@H]5CCC6=CC(=O)CC[C@]6(C)C5=CC[C@@]43C)CC2)nc(N)n1 [Example 4, 21-[4-[2.Amino-6-(diethylamino)-4-pyrimidinyl]1-piperazinyl]-17α-hydroxypregna-4,9(11)-diene-3,20-dione]	demonstrate such activity	–	demonstrate such activity	–	–	–	demonstrate arachidonic acid antagonism	–
C[C@@H]1C[C@H]2[C@@H]3CCC4=CC(=O)C=C[C@]4(C)[C@H]3[C@H](O)C[C@]2(C)[C@H]1C(=O)CN1CCN(c2cc(N3CCCC3)nc(N3CCCC3)n2)CC1 [Example 84, 11α-hydroxy-16α-methyl-21-[4-[2,6-bis(1-pyrrolidinyl)-4-pyrimidinyl]-1-piperazinyl]pregna-1,4-diene 3,20-dione]	demonstrate such activity	demonstrate inhibition of interleukin 1	–	–	–	–	–	–
